The target in experiment [1] is T1, Human Factor XIIa (hFXIIa) (Homo sapiens, UniProt P00748).
T1 construct: purchased Enzyme Research Laboratories
T1 sequence (P00748 373-615 limits assumed): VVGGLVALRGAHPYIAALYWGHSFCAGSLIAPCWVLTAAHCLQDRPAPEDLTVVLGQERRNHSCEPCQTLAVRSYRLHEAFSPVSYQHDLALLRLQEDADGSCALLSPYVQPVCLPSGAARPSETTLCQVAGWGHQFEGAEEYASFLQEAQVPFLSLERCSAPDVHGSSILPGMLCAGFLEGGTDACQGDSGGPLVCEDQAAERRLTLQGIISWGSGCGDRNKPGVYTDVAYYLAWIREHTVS
T1 sequence (P00748 20-372 partner limits assumed): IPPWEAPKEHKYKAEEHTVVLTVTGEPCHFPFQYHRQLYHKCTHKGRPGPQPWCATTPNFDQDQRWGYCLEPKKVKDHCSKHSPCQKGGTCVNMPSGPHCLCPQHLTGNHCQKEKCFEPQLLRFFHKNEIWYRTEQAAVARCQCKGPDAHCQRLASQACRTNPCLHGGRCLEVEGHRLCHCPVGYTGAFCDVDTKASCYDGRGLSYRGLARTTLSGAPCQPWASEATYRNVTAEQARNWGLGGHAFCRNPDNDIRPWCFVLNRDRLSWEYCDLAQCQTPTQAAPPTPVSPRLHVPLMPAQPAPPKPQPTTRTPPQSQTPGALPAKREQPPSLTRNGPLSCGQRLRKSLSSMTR
Description: Determination of Human Factor XIIa (hFXIIa) inhibition, fluorogenic substrate IC50 assay. The experiment is classed as biochemical. Particulars: fluorogenic substrate H-DPro-Phe-Arg-AFC at Km, 25° C., read-out: Human FXIIa IC50. As for the experimental part:
Determination of Human Factor XIIa (hFXIIa) inhibition
The Km for the cleavage of the substrate by hFXIIa was determined by standard transformation of the Michaelis-Menten equation, with subsequent inhibition assays performed at substrate Km concentration.

The target in another experiment is FXa (Homo sapiens, UniProt P00742). Put plainly: Related protease inhibition: FXa, fluorogenic substrate. The experiment is classed as biochemical. To be noted: fluorogenic substrate at Km, 25° C.; H1-H3 = % activity at 40 μM. Here is the method: Human serine protease enzyme Plasma Kallikrein, KLK1, FXa, Plasmin, Thrombin and Trypsin were assayed for enzymatic activity using an appropriate fluorogenic substrate at Km concentration, FXIa at fixed substrate concentration of 100 μM and various concentrations of the test compound.
Sequence of FXa (P00742 235-488 limits assumed): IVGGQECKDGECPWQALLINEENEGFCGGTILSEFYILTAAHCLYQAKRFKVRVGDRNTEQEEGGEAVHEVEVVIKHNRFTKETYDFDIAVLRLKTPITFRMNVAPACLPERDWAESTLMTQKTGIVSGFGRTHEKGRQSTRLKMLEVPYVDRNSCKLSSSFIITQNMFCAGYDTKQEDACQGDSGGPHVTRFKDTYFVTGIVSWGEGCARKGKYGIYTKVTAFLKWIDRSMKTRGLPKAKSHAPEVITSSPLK
Sequence of FXa (P00742 41-179 partner limits assumed): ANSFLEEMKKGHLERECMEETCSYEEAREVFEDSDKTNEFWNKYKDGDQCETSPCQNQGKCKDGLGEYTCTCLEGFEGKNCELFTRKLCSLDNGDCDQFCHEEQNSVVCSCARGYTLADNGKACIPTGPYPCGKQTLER

Our source for the IC50 values is patent US20260132132A1, “3A,4,5,6-TETRAHYDRO-1 H-PYRAZOLO[3,4-C]PYRIDIN-7(7AH)-ONE DERIVATIVES AS FACTOR XIIA INHIBITORS” (KALVISTA PHARMACEUTICALS LIMITED, priority 2022, published 2026).

Molecules are shown by their SMILES.

As usually defined, the IC50 is the concentration that inhibits the measured activity by half. As to `O=C(O)CN1CCc2ccc(N3CCc4c(C(=O)NCC5CC5)nn(-c5cccc(Cl)c5)c4C3=O)cc2C1=O` [Example 1330, 2-(7-(1-(3-chlorophenyl)-3-((cyclopropylmethyl)carbamoyl)-7-oxo-1,4,5,7-tetrahydro-6H-pyrazolo[3,4-c]pyridin-6-yl)-1-oxo-3,4-dihydroisoquinolin-2(1H)-yl)acetic acid], the IC50 in experiment [1] was 1000 to 3000 nM; against FXa it was greater than 40000 nM.

Take `Cc1cc(CNC(=O)c2nn(-c3cccc(Cl)c3)c3c2CCN(c2ccc4c(c2)C(=O)N(CC(=O)O)CC4)C3=O)nn1C` [Example 1331, 2-(7-(1-(3-chlorophenyl)-3-(((1,5-dimethyl-1H-pyrazol-3-yl)methyl)carbamoyl)-7-oxo-1,4,5,7-tetrahydro-6H-pyrazolo[3,4-c]pyridin-6-yl)-1-oxo-3,4-dihydroisoquinolin-2(1H)-yl)acetic acid]: the figures for the IC50 (in experiment [1]; on FXa) were 300 to 1000 nM and greater than 4000 nM, respectively.

Regarding `Cc1cc(CNC(=O)c2nn(-c3cccc(Cl)c3)c3c2CCN(c2ccc4c(c2)C(=O)N(CC(=O)O)CC4)C3=O)n[nH]1` [Example 1332, 2-(7-(1-(3-chlorophenyl)-3-(((5-methyl-1H-pyrazol-3-yl)methyl)carbamoyl)-7-oxo-1,4,5,7-tetrahydro-6H-pyrazolo[3,4-c]pyridin-6-yl)-1-oxo-3,4-dihydroisoquinolin-2(1H)-yl)acetic acid], the half-maximal inhibitory concentration (IC50) in experiment [1] is 300 to 1000 nM; on FXa, greater than 4000 nM.

For `NC(=O)CN1CCc2ccc(N3CCc4c(C(=O)NCC5CC5)nn(-c5cccc(Cl)c5)c4C3=O)cc2C1=O` [Example 1333, 6-(2-(2-amino-2-oxoethyl)-1-oxo-1,2,3,4-tetrahydroisoquinolin-7-yl)-1-(3-chlorophenyl)-N-(cyclopropylmethyl)-7-oxo-4,5,6,7-tetrahydro-1H-pyrazolo[3,4-c]pyridine-3-carboxamide], the half-maximal inhibitory concentration (IC50) is 300 to 1000 nM in experiment [1] and greater than 4000 nM against FXa.

Turning to `CNC(=O)c1nn(-c2cccc(Cl)c2)c2c1CCN(c1ccc3c(c1)C(=O)N(C)CC3)C2=O` [Example 1334, 1-(3-chlorophenyl)-N-methyl-6-(2-methyl-1-oxo-1,2,3,4-tetrahydroisoquinolin-7-yl)-7-oxo-4,5,6,7-tetrahydro-1H-pyrazolo[3,4-c]pyridine-3-carboxamide], the IC50 in experiment [1] is 300 to 1000 nM; on FXa, greater than 40000 nM.

In the case of `CN1CCc2ccc(N3CCc4c(C(=O)N5CCC5)nn(-c5cccc(Cl)c5)c4C3=O)cc2C1=O` [Example 1335, 7-(3-(azetidine-1-carbonyl)-1-(3-chlorophenyl)-7-oxo-1,4,5,7-tetrahydro-6H-pyrazolo[3,4-c]pyridin-6-yl)-2-methyl-3,4-dihydroisoquinolin-1(2H)-one], the IC50 in experiment [1] was 1000 to 3000 nM; against FXa, greater than 40000 nM.

As for `CN1CCc2ccc(N3CCc4c(C(=O)N[C@H]5CCOC5)nn(-c5cccc(Cl)c5)c4C3=O)cc2C1=O` [Example 1336, (S)-1-(3-chlorophenyl)-6-(2-methyl-1-oxo-1,2,3,4-tetrahydroisoquinolin-7-yl)-7-oxo-N-(tetrahydrofuran-3-yl)-4,5,6,7-tetrahydro-1H-pyrazolo[3,4-c]pyridine-3-carboxamide], the IC50 in experiment [1] is 300 to 1000 nM; at FXa it was greater than 40000 nM.

As to `C[C@H](CO)NC(=O)c1nn(-c2cccc(Cl)c2)c2c1CCN(c1ccc3c(c1)C(=O)N(C)CC3)C2=O` [Example 1337, (R)-1-(3-chlorophenyl)-N-(1-hydroxypropan-2-yl)-6-(2-methyl-1-oxo-1,2,3,4-tetrahydroisoquinolin-7-yl)-7-oxo-4,5,6,7-tetrahydro-1H-pyrazolo[3,4-c]pyridine-3-carboxamide], the concentration for half-maximal inhibition (IC50) is 300 to 1000 nM in experiment [1] and greater than 40000 nM on FXa.

With `CN1CCc2ccc(N3CCc4c(C(=O)N[C@@H]5CCOC5)nn(-c5cccc(Cl)c5)c4C3=O)cc2C1=O` [Example 1338, (R)-1-(3-chlorophenyl)-6-(2-methyl-1-oxo-1,2,3,4-tetrahydroisoquinolin-7-yl)-7-oxo-N-(tetrahydrofuran-3-yl)-4,5,6,7-tetrahydro-1H-pyrazolo[3,4-c]pyridine-3-carboxamide], the IC50 in experiment [1] was 300 to 1000 nM; on FXa it was greater than 40000 nM.

For the compound `CN1CCc2ccc(N3CCc4c(C(=O)NCC5COC5)nn(-c5cccc(Cl)c5)c4C3=O)cc2C1=O` [Example 1339, 1-(3-chlorophenyl)-6-(2-methyl-1-oxo-1,2,3,4-tetrahydroisoquinolin-7-yl)-N-(oxetan-3-ylmethyl)-7-oxo-4,5,6,7-tetrahydro-1H-pyrazolo[3,4-c]pyridine-3-carboxamide], the IC50 in experiment [1] was 300 to 1000 nM; on FXa, greater than 40000 nM.

For `CN1CCc2ccc(N3CCc4c(C(=O)NCCO)nn(-c5cccc(Cl)c5)c4C3=O)cc2C1=O` [Example 1340, 1-(3-chlorophenyl)-N-(2-hydroxyethyl)-6-(2-methyl-1-oxo-1,2,3,4-tetrahydroisoquinolin-7-yl)-7-oxo-4,5,6,7-tetrahydro-1H-pyrazolo[3,4-c]pyridine-3-carboxamide], the IC50 in experiment [1] was 300 to 1000 nM; against FXa, greater than 40000 nM.

Regarding `CN1CCc2ccc(N3CCc4c(C(=O)NCC(=O)O)nn(-c5cccc(Cl)c5)c4C3=O)cc2C1=O` [Example 1341, (1-(3-chlorophenyl)-6-(2-methyl-1-oxo-1,2,3,4-tetrahydroisoquinolin-7-yl)-7-oxo-4,5,6,7-tetrahydro-1H-pyrazolo[3,4-c]pyridine-3-carbonyl)glycine], the IC50 fell in the range of 300 to 1000 nM in experiment [1] and 10000 to 40000 nM against FXa.

As for `CN1CCc2ccc(N3CCc4c(C(=O)NC5COC5)nn(-c5cccc(Cl)c5)c4C3=O)cc2C1=O` [Example 1342, 1-(3-chlorophenyl)-6-(2-methyl-1-oxo-1,2,3,4-tetrahydroisoquinolin-7-yl)-N-(oxetan-3-yl)-7-oxo-4,5,6,7-tetrahydro-1H-pyrazolo[3,4-c]pyridine-3-carboxamide], the IC50 in experiment [1] is 300 to 1000 nM; on FXa, greater than 40000 nM.

Regarding `CN1CCc2ccc(N3CCc4c(C(=O)N5CCCO5)nn(-c5cccc(Cl)c5)c4C3=O)cc2C1=O` [Example 1343, 7-(1-(3-chlorophenyl)-3-(isoxazolidine-2-carbonyl)-7-oxo-1,4,5,7-tetrahydro-6H-pyrazolo[3,4-c]pyridin-6-yl)-2-methyl-3,4-dihydroisoquinolin-1(2H)-one], the values for the IC50 (in experiment [1]; on FXa) were 1000 to 3000 nM and 10000 to 40000 nM, respectively.

With `C[C@@H](CO)NC(=O)c1nn(-c2cccc(Cl)c2)c2c1CCN(c1ccc3c(c1)C(=O)N(C)CC3)C2=O` [Example 1344, (S)-1-(3-chlorophenyl)-N-(1-hydroxypropan-2-yl)-6-(2-methyl-1-oxo-1,2,3,4-tetrahydroisoquinolin-7-yl)-7-oxo-4,5,6,7-tetrahydro-1H-pyrazolo[3,4-c]pyridine-3-carboxamide], the IC50 in experiment [1] was 300 to 1000 nM; on FXa, 10000 to 40000 nM.

For `CN1CCc2ccc(N3CCc4c(C(=O)NS(C)(=O)=O)nn(-c5cccc(Cl)c5)c4C3=O)cc2C1=O` [Example 1345, 1-(3-chlorophenyl)-6-(2-methyl-1-oxo-1,2,3,4-tetrahydroisoquinolin-7-yl)-N-(methylsulfonyl)-7-oxo-4,5,6,7-tetrahydro-1H-pyrazolo[3,4-c]pyridine-3-carboxamide], the 50% inhibitory concentration (IC50) in experiment [1] was 3000 to 10000 nM; on FXa it was greater than 40000 nM.
